Assay results taken from US10221171B2, “Oxathiazole thiazolium Hsp 70 inhibitors” (THE REGENTS OF THE UNIVERSITY OF CALIFORNIA, priority 2015, dated 2019).
Like-named read-outs stand apart in the source and are kept apart here.

Columns and labels:
Assay type in all cases: cell-based
MEF (C57BL/6) = assay: MTT cell viability assay, MEF (C57BL/6); settings: Mus musculus
Procedure: (§1) Cells were then treated with compound at various concentrations in 0.2 mL media. After the 72-hour incubation period, cells were washed in PBS (3×100 μL), and 10 μL MTT reagent was added with 100 μL fresh media. Cells were then incubated for 4 hr in a humidified chamber at 37° C. with 5% CO2. Insoluble formazan crystals were solubilized by addition of 0.1 mL detergent solution (4 hr at room temp., dark). Resulting colored solutions were then quantified at an absorbance of 570 nm.

MDA-MB-231 = assay: MTT cell viability assay, MDA-MB-231; settings: Homo sapiens
Procedure: as §1

MCF-7 = assay: MTT cell viability assay, MCF-7; settings: Homo sapiens, read-out: IC50/μM MCF-7
Procedure: as §1

[1] = MTT, 72-hour incubation, read-out: IC50/μM MEF (C57BL/6)
[2] = 72 h, read-out: IC50/μM MEF (C57BL/6), MTT, 72-hour incubation
[3] = MDA-MB-231, 72 h, 72-hour incubation
[4] = MCF7, 72 h, MTT, 72-hour incubation

Compound | IC50 (MDA-MB-231; MDA-MB-231, 72-hour incubation) | IC50 (MCF-7; MCF7, MTT, 72-hour incubation) | IC50 (MEF (C57BL/6); [1]) | IC50 (MEF (C57BL/6); [2]) | IC50 (MDA-MB-231; [3]) | IC50 (MCF-7; [4]) | IC50 (MCF-7; MCF7, 72 h)
CCn1c(=O)/c(=C2\Sc3cc(C(C)C)ccc3N2C)s/c1=C\c1scc[n+]1Cc1ccccc1Cl [JG-323] | 0.19 ± 0.01 µM | 0.12 ± 0.01 µM | 0.53 ± 0.02 µM | – | – | – | –
CCn1c(=O)/c(=C2\Sc3cc(OC)ccc3N2C)s/c1=C\c1scc[n+]1Cc1ccccc1OC [JG-352] | – | – | – | 0.77 ± 0.03 µM | 0.062 ± 0.006 µM | 0.076 ± 0.005 µM | –
CCn1c(=O)/c(=C2\Sc3cc(Cl)ccc3N2C)s/c1=C\c1scc[n+]1Cc1ccccc1S(C)(=O)=O [JG-287] | 1.3 ± 0.3 µM | 1.73 ± 0.2 µM | > 10 µM | – | – | – | –
CCn1c(=O)/c(=C2\Sc3cc(F)ccc3N2C)s/c1=C\c1scc[n+]1Cc1ccccc1C(=O)O [JG-315] | > 20 µM | > 20 µM | > 10 µM | – | – | – | –
CCn1c(=O)/c(=C2\Sc3cc(C)ccc3N2C)s/c1=C\c1scc[n+]1CCc1ccc(C(F)(F)F)cc1 [JG-388] | 0.62 ± 0.07 µM | 0.5 ± 0.04 µM | 1.6 ± 0.1 µM | – | – | – | –
CCn1c(=O)/c(=C2\Sc3cc(Cl)ccc3N2C)s/c1=C\c1scc[n+]1Cc1occc1C(=O)OC [JG-265] | – | – | – | 2.7 ± 0.1 µM | 0.13 ± 0.01 µM | 0.81 ± 0.09 µM | –
CCn1c(=O)/c(=C2\Sc3cc(SC)ccc3N2C)s/c1=C\c1scc[n+]1C(C)c1ccccc1 (stereo not drawn) [JG-321] | 0.14 ± 0.01 µM | 0.23 ± 0.03 µM | 1.8 ± 0.1 µM | – | – | – | –
CCn1c(=O)/c(=C2\Sc3cc(Cl)ccc3N2C)s/c1=C\c1scc[n+]1Cc1ccccc1C(=O)OC [JG-331] | – | – | – | 2.9 ± 0.1 µM | 0.17 ± 0.02 µM | 0.17 ± 0.02 µM | –
CCn1c(=O)/c(=C2\Sc3ccc(C)cc3N2C)s/c1=C\c1scc[n+]1Cc1occc1C(=O)OC [JG-370] | 0.18 ± 0.02 µM | 0.22 ± 0.01 µM | 1.2 ± 0.1 µM | – | – | – | –
CCn1c(=O)/c(=C2\Sc3cc(Cl)ccc3N2C)s/c1=C\c1scc[n+]1CCc1ccc(C(F)(F)F)cc1 [JG-387] | 0.74 ± 0.04 µM | 0.78 ± 0.09 µM | > 10 µM | – | – | – | –
CCn1c(=O)/c(=C2\Sc3cc(Cl)ccc3N2C)s/c1=C\c1scc[n+]1CCc1ccccc1C [JG-391] | 0.26 ± 0.01 µM | 0.68 ± 0.04 µM | 2.5 ± 0.2 µM | – | – | – | –
CCn1c(=O)/c(=C2\Sc3cc(C)ccc3N2C)s/c1=C\c1scc[n+]1CCc1ccc(Cl)cc1 [JG-386] | 0.28 ± 0.03 µM | 0.53 ± 0.05 µM | 1.7 ± 0.1 µM | – | – | – | –
CCn1c(=O)/c(=C2\Sc3cc(C)ccc3N2C)s/c1=C\c1scc[n+]1Cc1c(C)cccc1C [JG-372] | 0.68 ± 0.16 µM | 0.18 ± 0.01 µM | 0.67 ± 0.01 µM | – | – | – | –
CCn1c(=O)/c(=C2\Sc3cc(C)ccc3N2C)s/c1=C\c1scc[n+]1CCc1ccccc1OC [JG-390] | 0.12 ± 0.01 µM | 0.31 ± 0.04 µM | 1.2 ± 0.1 µM | – | – | – | –
CCn1c(=O)/c(=C2\Sc3cc(C(C)C)ccc3N2C)s/c1=C\c1scc[n+]1Cc1ccc(C(F)(F)F)o1 [JG-328] | 0.23 ± 0.02 µM | 0.14 ± 0.02 µM | 0.7 ± 0.03 µM | – | – | – | –
CCn1c(=O)/c(=C2\Sc3cc(OC)ccc3N2C)s/c1=C\c1scc[n+]1Cc1ccccc1OC(F)(F)F [JG-303] | – | – | 0.7 ± 0.01 µM | – | 0.053 ± 0.005 µM | – | 0.07 ± 0.003 µM
C=CCn1c(=O)/c(=C2\Sc3cc(C)ccc3N2C)s/c1=C\c1scc[n+]1Cc1ccccc1 [JG-341] | 0.11 ± 0.01 µM | 0.15 ± 0.01 µM | 1.6 ± 0.1 µM | – | – | – | –

The next lines start with results.

IC50 (MDA-MB-231; MDA-MB-231, 72-hour incubation) | IC50 (MCF-7; MCF7, MTT, 72-hour incubation) | Compound | IC50 (MEF (C57BL/6); [1]) | IC50 (MEF (C57BL/6); [2]) | IC50 (MDA-MB-231; [3]) | IC50 (MCF-7; [4]) | IC50 (MCF-7; MCF7, 72 h)
0.11 ± 0.01 µM | 0.45 ± 0.04 µM | CCn1c(=O)/c(=C2\Sc3ccc(OC)cc3N2C)s/c1=C\c1scc[n+]1Cc1ccccc1C(F)(F)F [JG-401] | 0.27 ± 0.03 µM | – | – | – | –
0.14 ± 0.02 µM | 0.13 ± 0.01 µM | CCn1c(=O)/c(=C2\Sc3cc(C)ccc3N2C)s/c1=C\c1scc[n+]1CCc1ccccc1C(F)(F)F [JG-378] | 0.87 ± 0.03 µM | – | – | – | –
0.06 ± 0.007 µM | 0.069 ± 0.005 µM | CCn1c(=O)/c(=C2\Sc3cc(C(C)C)ccc3N2C)s/c1=C\c1scc[n+]1Cc1ccccc1C(F)(F)F [JG-326] | 0.45 ± 0.04 µM | – | – | – | –
0.083 ± 0.007 µM | 0.08 ± 0.008 µM | CCn1c(=O)/c(=C2\Sc3cc(OC)ccc3N2C)s/c1=C\c1scc[n+]1CCc1ccccc1OC [JG-397] | 1.3 ± 0.1 µM | – | – | – | –
0.11 ± 0.01 µM | 0.14 ± 0.01 µM | CCn1c(=O)/c(=C2\Sc3cc(OC)ccc3N2C)s/c1=C\c1scc[n+]1Cc1ccccc1C(=O)OC [JG-351] | 1.6 ± 0.1 µM | – | – | – | –
0.64 ± 0.08 µM | 1.97 ± 0.11 µM | CCn1c(=O)/c(=C2\Sc3cc(F)ccc3N2C)s/c1=C\c1scc[n+]1Cc1ccccc1S(C)(=O)=O [JG-288] | > 10 µM | – | – | – | –
0.2 ± 0.03 µM | 0.18 ± 0.01 µM | CCn1c(=O)/c(=C2\Sc3cc(OC)ccc3N2C)s/c1=C\c1scc[n+]1CCc1ccccc1Cl [JG-379] | 0.9 ± 0.01 µM | – | – | – | –
0.11 ± 0.01 µM | 0.12 ± 0.01 µM | CCn1c(=O)/c(=C2\Sc3cc(OC)ccc3N2C)s/c1=C\c1scc[n+]1Cc1ccccc1C [JG-302] | 1.8 ± 0.05 µM | – | – | – | –
0.15 ± 0.01 µM | 0.16 ± 0.01 µM | CCn1c(=O)/c(=C2\Sc3cc(C)ccc3N2C)s/c1=C\c1scc[n+]1Cc1ccccc1C(=O)OC [JG-374] | 0.69 ± 0.03 µM | – | – | – | –
